# Measured values taken from US20130267484A1, “TREATMENT OF RHEUMATOID ARTHRITIS WITH MASITINIB” (AB SCIENCE, priority 2010, published 2013).
# Like-named read-outs stand apart in the source and are kept apart here.
# How the values were obtained:
# c-kit = settings: cited from earlier work
# ABL = ABL (Homo sapiens, UniProt P00519); settings: at therapeutic doses; cited from earlier work
# 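For ALAT in the patient with hepatic disorder in this document: Open-label phase 2a trial, oral dosing twice daily, incidence of drug-related AEs (>4%) by intensity per Common Toxicity Criteria v3.0, initial 12-week and extension phases.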
# 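For ASAT in the patient with hepatic disorder in this document: Open-label phase 2a trial, oral dosing twice daily, incidence of drug-related AEs (>4%) by intensity per Common Toxicity Criteria v3.0, initial 12-week and extension phases.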
# 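For Treatment time to occurrence of severe transaminases increase AE in this document: Open-label phase 2a trial, oral dosing twice daily, incidence of drug-related AEs (>4%) by intensity per Common Toxicity Criteria v3.0, initial 12-week and extension phases.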
# 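For alkaline phosphatase in the patient with hepatic disorder in this document: Open-label phase 2a trial, oral dosing twice daily, incidence of drug-related AEs (>4%) by intensity per Common Toxicity Criteria v3.0, initial 12-week and extension phases.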
# Method for adults with active RA: Safety was assessed by occurrence of adverse events (AE), SAEs, and monitoring biochemical, haematological and urinalysis parameters during the study period, with toxicity graded according to the Common Toxicity Criteria version 3.0.
# Chain of ABL (P00519 whole entry): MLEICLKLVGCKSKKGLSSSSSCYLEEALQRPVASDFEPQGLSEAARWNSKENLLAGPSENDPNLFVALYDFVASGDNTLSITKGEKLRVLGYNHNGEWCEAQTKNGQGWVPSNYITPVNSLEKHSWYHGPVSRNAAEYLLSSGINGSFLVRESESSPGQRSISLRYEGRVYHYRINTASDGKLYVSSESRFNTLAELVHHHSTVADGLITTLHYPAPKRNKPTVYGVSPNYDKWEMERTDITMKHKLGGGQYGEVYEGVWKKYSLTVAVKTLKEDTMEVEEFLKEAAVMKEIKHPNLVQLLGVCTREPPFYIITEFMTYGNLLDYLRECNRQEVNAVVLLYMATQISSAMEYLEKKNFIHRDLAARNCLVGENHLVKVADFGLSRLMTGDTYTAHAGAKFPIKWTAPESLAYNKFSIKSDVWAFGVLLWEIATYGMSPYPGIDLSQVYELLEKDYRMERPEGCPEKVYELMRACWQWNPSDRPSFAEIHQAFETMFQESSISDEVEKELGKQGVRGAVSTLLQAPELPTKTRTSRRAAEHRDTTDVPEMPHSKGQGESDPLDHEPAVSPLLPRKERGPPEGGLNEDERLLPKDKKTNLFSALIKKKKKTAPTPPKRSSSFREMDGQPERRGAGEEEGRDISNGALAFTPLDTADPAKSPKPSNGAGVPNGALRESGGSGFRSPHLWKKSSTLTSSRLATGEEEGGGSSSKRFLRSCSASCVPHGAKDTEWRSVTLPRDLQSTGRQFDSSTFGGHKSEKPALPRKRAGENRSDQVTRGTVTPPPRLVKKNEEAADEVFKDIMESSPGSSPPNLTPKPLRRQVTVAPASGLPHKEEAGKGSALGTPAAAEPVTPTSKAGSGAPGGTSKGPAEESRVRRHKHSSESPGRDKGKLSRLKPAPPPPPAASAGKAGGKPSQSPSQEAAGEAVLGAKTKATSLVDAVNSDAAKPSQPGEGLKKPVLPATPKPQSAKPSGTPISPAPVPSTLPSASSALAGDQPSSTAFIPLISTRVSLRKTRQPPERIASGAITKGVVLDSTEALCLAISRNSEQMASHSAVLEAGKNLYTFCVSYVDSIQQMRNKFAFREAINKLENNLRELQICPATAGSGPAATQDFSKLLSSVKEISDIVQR
compound,measurement,setting,value
"Cc1ccc(NC(=O)c2ccc(CN3CCN(C)CC3)cc2)cc1Nc1nc(-c2cccnc2)cs1 [masitinib, 4-(4-methylpiperazin-1-ylmethyl)-N-[4-methyl-3-(4-pyridin-3ylthiazol-2-ylamino)phenyl]benzamide]",ALAT in the patient with hepatic disorder,"adults with active RA; 6 mg/kg/day, one patient",188
same,ASAT in the patient with hepatic disorder,"adults with active RA; 6 mg/kg/day, one patient",122
same,Treatment time to occurrence of severe transaminases increase AE,"adults with active RA; 6 mg/kg/day, one patient",14 days
same,alkaline phosphatase in the patient with hepatic disorder,"adults with active RA; 6 mg/kg/day, one patient",635
same,Suspected AE: Aphthous Stomatitis,"adults with active RA; Extension phase, All (n = 21)",1 (4.8%)
same,Suspected AE: Asthenia,"adults with active RA; Extension phase, All (n = 21)",1 (4.8%)
same,Suspected AE: Bronchopneumopathy,"adults with active RA; Extension phase, All (n = 21)",1 (4.8%)
same,Suspected AE: Eczema,"adults with active RA; Extension phase, All (n = 21)",1 (4.8%)
same,Suspected AE: Edema - All,"adults with active RA; Extension phase, All (n = 21)",2 (9.5%)
same,Suspected AE: Gastroenteritis,"adults with active RA; Extension phase, All (n = 21)",1 (4.8%)
same,Suspected AE: Leukopenia,"adults with active RA; Extension phase, All (n = 21)",1 (4.8%)
same,Suspected AE: Liver Disorder,"adults with active RA; Extension phase, All (n = 21)",1 (4.8%)
same,Suspected AE: Nasopharyngitis,"adults with active RA; Extension phase, All (n = 21)",1 (4.8%)
same,Suspected AE: Neutrophil Count Decreased,"adults with active RA; Extension phase, All (n = 21)",1 (4.8%)
same,Suspected AE: Onychoclasis,"adults with active RA; Extension phase, All (n = 21)",1 (4.8%)
same,Suspected AE: Photosensitivity Reaction,"adults with active RA; Extension phase, All (n = 21)",1 (4.8%)
same,Suspected AE: Pleural Effusion,"adults with active RA; Extension phase, All (n = 21)",1 (4.8%)
same,Suspected AE: Pyrexia,"adults with active RA; Extension phase, All (n = 21)",1 (4.8%)
same,Suspected AE: Rheumatoid Arthritis,"adults with active RA; Extension phase, All (n = 21)",1 (4.8%)
same,Suspected AE: Rhinitis,"adults with active RA; Extension phase, All (n = 21)",1 (4.8%)
same,Suspected AE: Vertigo,"adults with active RA; Extension phase, All (n = 21)",1 (4.8%)
same,Subjects with At least one suspected AE,"adults with active RA; Extension phase, Mild",4 (19.0%)
same,Suspected AE: Aphthous Stomatitis,"adults with active RA; Extension phase, Mild",1 (4.8%)
same,Suspected AE: Asthenia,"adults with active RA; Extension phase, Mild",1 (4.8%)
same,Suspected AE: Eczema,"adults with active RA; Extension phase, Mild",1 (4.8%)
same,Suspected AE: Gastroenteritis,"adults with active RA; Extension phase, Mild",1 (4.8%)
same,Suspected AE: Nasopharyngitis,"adults with active RA; Extension phase, Mild",1 (4.8%)
same,Suspected AE: Neutrophil Count Decreased,"adults with active RA; Extension phase, Mild",1 (4.8%)
same,Suspected AE: Onychoclasis,"adults with active RA; Extension phase, Mild",1 (4.8%)
same,Suspected AE: Photosensitivity Reaction,"adults with active RA; Extension phase, Mild",1 (4.8%)
same,Suspected AE: Pyrexia,"adults with active RA; Extension phase, Mild",1 (4.8%)
same,Suspected AE: Rhinitis,"adults with active RA; Extension phase, Mild",1 (4.8%)
same,Subjects with At least one suspected AE,"adults with active RA; Extension phase, Moderate",3 (14.3%)
same,Suspected AE: Edema - All,"adults with active RA; Extension phase, Moderate",2 (9.5%)
same,Suspected AE: Leukopenia,"adults with active RA; Extension phase, Moderate",1 (4.8%)
same,Suspected AE: Vertigo,"adults with active RA; Extension phase, Moderate",1 (4.8%)
same,Suspected AE: Bronchopneumopathy,"adults with active RA; Extension phase, Severe",1 (4.8%)
same,Suspected AE: Liver Disorder,"adults with active RA; Extension phase, Severe",1 (4.8%)
same,Suspected AE: Pleural Effusion,"adults with active RA; Extension phase, Severe",1 (4.8%)
same,Suspected AE: Rheumatoid Arthritis,"adults with active RA; Extension phase, Severe",1 (4.8%)
same,Suspected AE: Abdominal Pain,"adults with active RA; Initial Phase, All (n = 43)",2 (4.7%)
same,Suspected AE: Abdominal Pain Upper,"adults with active RA; Initial Phase, All (n = 43)",5 (11.6%)
same,Suspected AE: Alopecia,"adults with active RA; Initial Phase, All (n = 43)",2 (4.7%)
same,Suspected AE: Asthenia,"adults with active RA; Initial Phase, All (n = 43)",5 (11.6%)
same,Suspected AE: Blood Creatinine Increased,"adults with active RA; Initial Phase, All (n = 43)",2 (4.7%)
same,Suspected AE: Cough,"adults with active RA; Initial Phase, All (n = 43)",2 (4.7%)
same,Suspected AE: Diarrhea,"adults with active RA; Initial Phase, All (n = 43)",8 (18.6%)
same,Suspected AE: Dry Mouth,"adults with active RA; Initial Phase, All (n = 43)",2 (4.7%)
same,Suspected AE: Dyspnoea,"adults with active RA; Initial Phase, All (n = 43)",3 (7.0%)
same,Suspected AE: Edema - All,"adults with active RA; Initial Phase, All (n = 43)",11 (25.6%)
same,Suspected AE: Gastroenteritis,"adults with active RA; Initial Phase, All (n = 43)",2 (4.7%)
same,Suspected AE: Headache,"adults with active RA; Initial Phase, All (n = 43)",6 (14.0%)
same,Suspected AE: Herpes Simplex,"adults with active RA; Initial Phase, All (n = 43)",3 (7.0%)
same,Suspected AE: Hyperthermia,"adults with active RA; Initial Phase, All (n = 43)",2 (4.7%)
same,Suspected AE: Nausea,"adults with active RA; Initial Phase, All (n = 43)",10 (23.3%)
same,Suspected AE: Petechiae,"adults with active RA; Initial Phase, All (n = 43)",2 (4.7%)
same,Suspected AE: Pyrexia,"adults with active RA; Initial Phase, All (n = 43)",3 (7.0%)
same,Suspected AE: Rash - All,"adults with active RA; Initial Phase, All (n = 43)",13 (30.2%)
same,Suspected AE: Vomiting,"adults with active RA; Initial Phase, All (n = 43)",5 (11.6%)
same,Suspected AE: Weight Decreased,"adults with active RA; Initial Phase, All (n = 43)",3 (7.0%)
same,Subjects with At least one suspected AE,"adults with active RA; Initial Phase, Mild",29 (67.4%)
same,Suspected AE: Abdominal Pain,"adults with active RA; Initial Phase, Mild",1 (2.3%)
same,Suspected AE: Abdominal Pain Upper,"adults with active RA; Initial Phase, Mild",4 (9.3%)
same,Suspected AE: Alopecia,"adults with active RA; Initial Phase, Mild",2 (4.7%)
same,Suspected AE: Blood Creatinine Increased,"adults with active RA; Initial Phase, Mild",1 (2.3%)
same,Suspected AE: Cough,"adults with active RA; Initial Phase, Mild",1 (2.3%)
same,Suspected AE: Diarrhea,"adults with active RA; Initial Phase, Mild",5 (11.6%)
same,Suspected AE: Dry Mouth,"adults with active RA; Initial Phase, Mild",1 (2.3%)
same,Suspected AE: Dyspnoea,"adults with active RA; Initial Phase, Mild",1 (2.3%)
same,Suspected AE: Edema - All,"adults with active RA; Initial Phase, Mild",2 (4.7%)
same,Suspected AE: Headache,"adults with active RA; Initial Phase, Mild",4 (9.3%)
same,Suspected AE: Herpes Simplex,"adults with active RA; Initial Phase, Mild",2 (4.7%)
same,Suspected AE: Nausea,"adults with active RA; Initial Phase, Mild",6 (14.0%)
same,Suspected AE: Petechiae,"adults with active RA; Initial Phase, Mild",1 (2.3%)
same,Suspected AE: Pyrexia,"adults with active RA; Initial Phase, Mild",1 (2.3%)
same,Suspected AE: Rash - All,"adults with active RA; Initial Phase, Mild",7 (16.3%)
same,Suspected AE: Vomiting,"adults with active RA; Initial Phase, Mild",1 (2.3%)
same,Suspected AE: Weight Decreased,"adults with active RA; Initial Phase, Mild",2 (4.7%)
same,Subjects with At least one suspected AE,"adults with active RA; Initial Phase, Moderate",27 (62.8%)
same,Suspected AE: Abdominal Pain Upper,"adults with active RA; Initial Phase, Moderate",1 (2.3%)
same,Suspected AE: Asthenia,"adults with active RA; Initial Phase, Moderate",4 (9.3%)
same,Suspected AE: Blood Creatinine Increased,"adults with active RA; Initial Phase, Moderate",1 (2.3%)
same,Suspected AE: Cough,"adults with active RA; Initial Phase, Moderate",1 (2.3%)
same,Suspected AE: Diarrhea,"adults with active RA; Initial Phase, Moderate",2 (4.7%)
same,Suspected AE: Dyspnoea,"adults with active RA; Initial Phase, Moderate",1 (2.3%)
same,Suspected AE: Edema - All,"adults with active RA; Initial Phase, Moderate",6 (14.0%)
same,Suspected AE: Gastroenteritis,"adults with active RA; Initial Phase, Moderate",2 (4.7%)
same,Suspected AE: Headache,"adults with active RA; Initial Phase, Moderate",2 (4.7%)
same,Suspected AE: Herpes Simplex,"adults with active RA; Initial Phase, Moderate",1 (2.3%)
same,Suspected AE: Hyperthermia,"adults with active RA; Initial Phase, Moderate",1 (2.3%)
same,Suspected AE: Nausea,"adults with active RA; Initial Phase, Moderate",5 (11.6%)
same,Suspected AE: Petechiae,"adults with active RA; Initial Phase, Moderate",1 (2.3%)
same,Suspected AE: Pyrexia,"adults with active RA; Initial Phase, Moderate",1 (2.3%)
same,Suspected AE: Rash - All,"adults with active RA; Initial Phase, Moderate",8 (18.6%)
same,Suspected AE: Vomiting,"adults with active RA; Initial Phase, Moderate",4 (9.3%)
same,Suspected AE: Weight Decreased,"adults with active RA; Initial Phase, Moderate",1 (2.3%)
same,Suspected AE: Abdominal Pain,"adults with active RA; Initial Phase, Severe",1 (2.3%)
same,Suspected AE: Asthenia,"adults with active RA; Initial Phase, Severe",1 (2.3%)
same,Suspected AE: Diarrhea,"adults with active RA; Initial Phase, Severe",1 (2.3%)
same,Suspected AE: Dry Mouth,"adults with active RA; Initial Phase, Severe",1 (2.3%)
same,Suspected AE: Dyspnoea,"adults with active RA; Initial Phase, Severe",1 (2.3%)
same,Suspected AE: Edema - All,"adults with active RA; Initial Phase, Severe",3 (7.0%)
same,Suspected AE: Hyperthermia,"adults with active RA; Initial Phase, Severe",1 (2.3%)
same,Suspected AE: Pyrexia,"adults with active RA; Initial Phase, Severe",1 (2.3%)
same,Early study discontinuation: Adverse event,"adults with active RA; Total population, of 16 discontinued",13/16
same,Median onset time of edematous episodes,adults with active RA; after first drug intake or dose increase,28 days
same,"Incidence of skin rash, nausea, vomiting or diarrhea","adults with active RA; after week 12 (extension phase, n = 21)",no incidence
same,Decrease in occurrence of edema,adults with active RA; extension phase versus initial phase,> 60%
same,Average time within which edematous episodes abated,"adults with active RA; human, in vivo",≤ 16 days
same,Doses associated with the majority of severe AEs,adults with active RA; in vivo,≥ 7.5 mg/kg/day
same,Early study discontinuation: Adverse event,"adults with active RA; initial dosage 3 mg/kg/day, of 7 discontinued",6/7
same,Early study discontinuation: Adverse event,"adults with active RA; initial dosage 6 mg/kg/day, of 9 discontinued",7/9
same,Patients discontinuing treatment with occurrence of AEs as main reason,"adults with active RA; initial phase, of 43 patients",30%
same,Deaths during the study,adults with active RA; n = 43,no deaths occurred
same,Patients with non-fatal SAE of severe intensity suspected to be related to masitinib (or not assessable),"adults with active RA; n = 43, skin rash, pleural effusion, pneumonia, RA flare up",9%
same,Time to resolution of severe transaminases increase AE after drug withdrawal,"adults with active RA; one patient, no reoccurrence following reintroduction",≤ 4 weeks
same,Effect on wild-type and juxtamembrane-mutated c-Kit receptors,c-kit,strong inhibitory effect
same,Inhibition of c-kit,c-kit,selectively inhibiting
same,Inhibition of ABL,ABL,without inhibiting
